In PMC3391414 (Journal of Agricultural and Food Chemistry, 2011):
Values joined by “and” are separate entries in the source; they are usually repeats but may differ in a detail not shown here. Identical values can stand only once. Like-named read-outs stand apart in the source and are kept apart here.

Columns and labels:
UGT1A7 = target: T1, UGT1A7 (Homo sapiens, UniProt Q9HAW7); test: Glucuronidation by recombinant human UGT1A7; conditions: UGT1A7, substrate 10 μM
T1 sequence (Q9HAW7 26-530): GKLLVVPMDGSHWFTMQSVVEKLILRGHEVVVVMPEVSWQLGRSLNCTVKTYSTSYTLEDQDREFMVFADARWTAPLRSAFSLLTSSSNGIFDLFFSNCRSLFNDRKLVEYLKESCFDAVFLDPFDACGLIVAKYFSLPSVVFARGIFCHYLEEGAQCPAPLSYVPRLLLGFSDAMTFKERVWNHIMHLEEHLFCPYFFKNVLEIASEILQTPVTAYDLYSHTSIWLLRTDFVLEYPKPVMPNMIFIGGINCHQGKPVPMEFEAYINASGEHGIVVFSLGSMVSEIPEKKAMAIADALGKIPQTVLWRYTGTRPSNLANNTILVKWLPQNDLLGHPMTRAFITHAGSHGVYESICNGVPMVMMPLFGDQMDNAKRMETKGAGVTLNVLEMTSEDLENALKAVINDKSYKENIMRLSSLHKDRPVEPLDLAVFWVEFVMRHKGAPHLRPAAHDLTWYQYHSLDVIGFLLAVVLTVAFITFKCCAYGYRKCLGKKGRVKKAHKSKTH

UGT1A8 [1] = target: T2, UGT1A8 (Homo sapiens, UniProt Q9HAW9); test: Glucuronidation by recombinant human UGT1A8
T2 sequence (Q9HAW9 26-530): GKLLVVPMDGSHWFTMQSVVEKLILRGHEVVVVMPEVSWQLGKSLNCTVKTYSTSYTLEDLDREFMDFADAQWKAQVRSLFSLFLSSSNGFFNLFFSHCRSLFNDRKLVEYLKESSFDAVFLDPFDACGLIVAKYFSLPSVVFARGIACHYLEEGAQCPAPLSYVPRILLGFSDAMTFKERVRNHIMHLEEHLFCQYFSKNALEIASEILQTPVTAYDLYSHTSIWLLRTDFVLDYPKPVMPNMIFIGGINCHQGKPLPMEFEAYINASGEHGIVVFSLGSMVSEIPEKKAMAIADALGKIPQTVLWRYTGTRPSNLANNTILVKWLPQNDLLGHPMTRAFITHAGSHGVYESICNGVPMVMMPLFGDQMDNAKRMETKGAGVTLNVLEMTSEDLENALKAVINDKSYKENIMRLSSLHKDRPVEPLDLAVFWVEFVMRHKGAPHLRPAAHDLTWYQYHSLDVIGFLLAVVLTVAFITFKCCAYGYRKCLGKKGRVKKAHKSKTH

UGT1A10 [2] = target: T3, UGT1A10 (Homo sapiens, UniProt Q9HAW8); test: Glucuronidation by recombinant human UGT1A10; conditions: UGT1A10, substrate 10 μM
T3 sequence (Q9HAW8 26-530): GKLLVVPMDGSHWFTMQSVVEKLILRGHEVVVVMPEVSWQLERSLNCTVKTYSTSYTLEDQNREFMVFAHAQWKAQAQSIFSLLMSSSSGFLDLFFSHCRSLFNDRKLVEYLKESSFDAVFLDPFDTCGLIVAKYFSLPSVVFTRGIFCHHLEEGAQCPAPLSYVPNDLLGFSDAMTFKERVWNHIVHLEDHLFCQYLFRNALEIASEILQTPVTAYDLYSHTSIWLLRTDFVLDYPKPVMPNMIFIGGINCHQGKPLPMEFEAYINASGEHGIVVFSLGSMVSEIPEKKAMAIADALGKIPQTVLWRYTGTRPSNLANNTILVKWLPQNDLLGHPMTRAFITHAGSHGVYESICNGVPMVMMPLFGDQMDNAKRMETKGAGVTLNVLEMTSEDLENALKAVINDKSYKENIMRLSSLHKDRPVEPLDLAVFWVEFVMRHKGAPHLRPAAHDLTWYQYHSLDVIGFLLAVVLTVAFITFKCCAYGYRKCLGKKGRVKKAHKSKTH

UGT1A9 = target: T4, UGT1A9 (Homo sapiens, UniProt O60656); conditions: pH 7.4
T4 sequence (O60656 26-530): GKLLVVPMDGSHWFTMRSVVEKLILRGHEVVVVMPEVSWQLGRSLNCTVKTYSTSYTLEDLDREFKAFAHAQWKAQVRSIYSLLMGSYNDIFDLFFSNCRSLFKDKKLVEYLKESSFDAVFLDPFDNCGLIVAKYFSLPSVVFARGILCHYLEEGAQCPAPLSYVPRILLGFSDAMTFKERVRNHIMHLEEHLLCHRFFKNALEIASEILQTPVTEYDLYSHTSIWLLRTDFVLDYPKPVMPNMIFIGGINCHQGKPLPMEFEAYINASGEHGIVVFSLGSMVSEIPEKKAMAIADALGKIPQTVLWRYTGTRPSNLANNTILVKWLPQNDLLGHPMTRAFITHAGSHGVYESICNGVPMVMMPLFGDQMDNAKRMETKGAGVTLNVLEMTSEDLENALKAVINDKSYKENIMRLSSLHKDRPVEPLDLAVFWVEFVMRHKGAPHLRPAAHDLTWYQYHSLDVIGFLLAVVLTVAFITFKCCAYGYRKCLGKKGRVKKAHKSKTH

UGT1A10 [3] = target: T3, UGT1A10; conditions: 10 μM, pH 7.4
UGT1A1 = target: T5, UGT1A1 (Homo sapiens, UniProt P22309); conditions: 10 μM, pH 7.4
T5 sequence (P22309 26-533): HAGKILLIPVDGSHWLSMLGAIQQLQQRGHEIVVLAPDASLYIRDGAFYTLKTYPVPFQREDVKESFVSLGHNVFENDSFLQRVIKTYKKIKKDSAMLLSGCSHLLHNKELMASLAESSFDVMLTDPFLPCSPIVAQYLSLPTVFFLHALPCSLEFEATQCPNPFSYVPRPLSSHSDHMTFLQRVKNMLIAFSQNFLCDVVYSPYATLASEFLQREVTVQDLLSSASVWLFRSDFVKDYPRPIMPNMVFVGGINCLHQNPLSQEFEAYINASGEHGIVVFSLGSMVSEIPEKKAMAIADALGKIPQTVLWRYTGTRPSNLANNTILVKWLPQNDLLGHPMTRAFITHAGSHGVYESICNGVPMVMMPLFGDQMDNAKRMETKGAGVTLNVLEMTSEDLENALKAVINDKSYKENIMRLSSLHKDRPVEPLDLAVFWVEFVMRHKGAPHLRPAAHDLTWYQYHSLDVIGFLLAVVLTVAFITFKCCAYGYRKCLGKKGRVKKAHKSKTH

UGT1A8 [4] = target: T2, UGT1A8; conditions: 10 μM, pH 7.4

Row | Hydroxyl positions glucuronidated (UGT1A7) | Hydroxyl positions glucuronidated (UGT1A8 [1]; UGT1A8, substrate 10 μM) | Hydroxyl positions glucuronidated (UGT1A10 [2]) | Degree of regiospecificity (major glucuronide in bracket) (UGT1A9; 2.5 μM) | Hydroxyl positions glucuronidated (UGT1A9; 10 μM) | Hydroxyl positions glucuronidated (UGT1A1) | Hydroxyl positions glucuronidated (UGT1A8 [4]) | Structure (SMILES) | Degree of regiospecificity (3-O vs 7-O) (UGT1A8 [1]; UGT1A8, substrate 35 μM) | Hydroxyl positions glucuronidated (UGT1A10 [3])
1 | glucuronidated 3-O, 7-O and 4’-O | glucuronidated 3-O, 7-O and 4’-O | glucuronidated 3-O, 7-O and 4’-O |  |  |  |  | O=c1c(O)c(-c2ccc(O)cc2)oc2cc(O)cc(O)c12 [5,7,4'THFnol, 3,5,7,4’-tetrahydroxyflavone] | weak regiospecificity and 7-O was the preferred position | 
2 |  |  |  | Dominant (7-O) | glucuronidated 7-O position only | glucuronidated 7-O position only | glucuronidated 7-O position only | O=c1cc(-c2ccccc2)oc2cc(O)cc(O)c12 [5,7DHF, 5,7-dihydroxyflavone] |  | glucuronidated both 7-O and 5-O positions
